Assays:
[1] = 85 kPa, Liquid, Vibrating tube method
[2] = mn = molality of the nth substance listed, in mol/kg; details: 85 kPa, Liquid, Vibrating tube method
[3] = wn = mass fraction of the nth substance listed; details: 85 kPa, Liquid, Vibrating tube method

O [water]
[1]
Details | mass density [kg/m3]
298.15 K | 997.29
303.15 K | 995.9
308.15 K | 994.27
313.15 K | 992.46

CCCCCCCCCCCC(=O)N(C)CC(=O)[O-].[Na+] [sodium [dodecanoyl(methyl)amino]acetate] + O
mass density [kg/m3], [2]
Details | m1 = 0.02 | m1 = 0.03 | m1 = 0.04 | m1 = 0.05 | m1 = 0.06 | m1 = 0.07 | m1 = 0.08 | m1 = 0.09
298.15 K | 998.13 | 998.42 | 998.73 | 999.03 | 999.43 | 999.67 | 1000.07 | 1000.37
303.15 K | 996.67 | 996.99 | 997.32 | 997.61 | 997.96 | 998.27 | 998.59 | 998.88
308.15 K | 995.04 | 995.33 | 995.67 | 995.93 | 996.27 | 996.56 | 996.88 | 997.14
313.15 K | 993.18 | 993.48 | 993.8 | 994.06 | 994.41 | 994.7 | 994.95 | 995.27

CCCO [propan-1-ol] + O
mass density [kg/m3], [3]
Details | 298.15 K | 303.15 K | 308.15 K | 313.15 K
w1 = 0.04 | 990.59 | 989.14 | 987.49 | 985.62
w1 = 0.08 | 985.46 | 983.86 | 982.13 | 980.12
w1 = 0.16 | 973.64 | 971.45 | 969.08 | 966.84

CCO [ethanol] + O
mass density [kg/m3], [3]
Details | 298.15 K | 303.15 K | 308.15 K | 313.15 K
w1 = 0.04 | 990.13 | 988.79 | 987.24 | 985.42
w1 = 0.08 | 983.9 | 982.43 | 980.77 | 978.85
w1 = 0.16 | 972.57 | 970.69 | 968.6 | 966.4

CO [methanol] + O
mass density [kg/m3], [3]
Details | 298.15 K | 303.15 K | 308.15 K | 313.15 K
w1 = 0.04 | 989.97 | 988.62 | 987.03 | 985.22
w1 = 0.08 | 982.92 | 981.47 | 979.91 | 978.12
w1 = 0.16 | 969.42 | 967.61 | 965.92 | 963.68
